IC50 data for 21 molecules are collected here from US20250186437A1, “CARBOLINE COMPOUNDS AND USE THEREOF” (PTC Therapeutics, Inc., priority 2021, published 2025).

For the experiment, the system named is MOLM-13 cells. The experiment can be described thus: MOLM-13 Cell Proliferation Assay (indicator of DHODH inhibition). It counts as cell-based. The note with it: Homo sapiens, 72 Hours of culture, CellTiter-Glo, no uridine. The procedure, abridged: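 Proliferation readout via CellTiter-Glo luminescence after 72 h compound treatment (37 °C, 5% CO2, 0.5% DMSO) of MOLM-13 cells seeded at 10^4 per well in RPMI 1640/10% FBS, used as a DHODH-inhibition indicator since these cells rely on de novo pyrimidine synthesis.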

For the molecule `CN(C)c1ncc(C2c3[nH]c4cc(F)c(Cl)cc4c3CCN2c2ncc(F)cn2)cn1` (stereo not drawn) [Compound 14, 5-[6-chloro-7-fluoro-2-(5-fluoropyrimidin-2-yl)-2,3,4,9-tetrahydro-1H-pyrido[3,4-b]indol-1-yl]-N,N-dimethylpyrimidin-2-amine], the IC50 stood at 30.2 nM.

With `Fc1ccc(C2c3[nH]c4cc(F)c(Cl)cc4c3CCN2c2nccc(C(F)(F)F)n2)c(F)n1` (stereo not drawn) [Compound 184, 6-chloro-1-(2,6-difluoropyridin-3-yl)-7-fluoro-2-[4-(trifluoromethyl)pyrimidin-2-yl]-2,3,4,9-tetrahydro-1H-pyrido[3,4-b]indole], the midpoint of inhibition, the IC50, lay at 8 nM.

The molecule `Cc1ccc(C2c3[nH]c4ccc(Cl)cc4c3CCN2c2nccc(C(F)(F)F)n2)c(O)c1` (stereo not drawn) [Compound 257, 2-{6-chloro-2-[4-(trifluoromethyl)pyrimidin-2-yl]-2,3,4,9-tetrahydro-1H-pyrido[3,4-b]indol-1-yl}-5-methylphenol] registered an IC50 of 1.3 nM.

The molecule `Cc1ccnc(N2CCc3c([nH]c4ccc(Cl)cc34)C2c2ccc(C)c(F)c2F)n1` (stereo not drawn) [Compound 203, 6-chloro-1-(2,3-difluoro-4-methylphenyl)-2-(4-methylpyrimidin-2-yl)-2,3,4,9-tetrahydro-1H-pyrido[3,4-b]indole] returned a 50% inhibitory concentration (IC50) of 1.6 nM.

The molecule `Cc1cc(C#N)nc(N2CCc3c([nH]c4ccc(Cl)c(F)c34)C2c2ccc(C)c(F)c2F)n1` (stereo not drawn) [Compound 232, 2-[6-chloro-1-(2,3-difluoro-4-methylphenyl)-5-fluoro-1,3,4,9-tetrahydro-2H-pyrido[3,4-b]indol-2-yl]-6-methylpyrimidine-4-carbonitrile] gave an IC50 of 0.5 nM.

`Cc1ccc(C2c3[nH]c4cc(F)c(Cl)cc4c3CCN2c2nc(C#N)cc(C#N)n2)c(F)c1F` (stereo not drawn) [Compound 216, 2-[6-chloro-1-(2,3-difluoro-4-methylphenyl)-7-fluoro-1,3,4,9-tetrahydro-2H-pyrido[3,4-b]indol-2-yl]pyrimidine-4,6-dicarbonitrile]: the half-inhibitory concentration (IC50) worked out at 4.8 nM.

Take `Cc1nc(C)nc(N2CCc3c([nH]c4ccc(Cl)cc34)C2c2ccc(F)cc2F)n1` (stereo not drawn) [Compound 451, 6-chloro-1-(2,4-difluorophenyl)-2-(4,6-dimethyl-1,3,5-triazin-2-yl)-2,3,4,9-tetrahydro-1H-pyrido[3,4-b]indole]: inhibition was half-maximal at 8 nM (IC50).

On to `Cc1ccc(C2c3[nH]c4ccc(F)c(F)c4c3CCN2c2ncc(Cl)cn2)cc1` (stereo not drawn) [Compound 84, 2-(5-chloropyrimidin-2-yl)-5,6-difluoro-1-(4-methylphenyl)-2,3,4,9-tetrahydro-1H-pyrido[3,4-b]indole], for which the midpoint of inhibition, the IC50, lay at 65.6 nM.

With `OCCNc1ncc([C@H]2c3[nH]c4ccc(Cl)cc4c3CCN2c2nc(C(F)(F)F)nc(C(F)(F)F)n2)cn1` [Compound 535, 2-[(5-{(1S)-2-[4,6-bis(trifluoromethyl)-1,3,5-triazin-2-yl]-6-chloro-2,3,4,9-tetrahydro-1H-pyrido[3,4-b]indol-1-yl}pyrimidin-2-yl)amino]ethan-1-ol], the midpoint of inhibition, the IC50, lay at 0.7 nM.

`O=[N+]([O-])c1ccc2[nH]c3c(c2c1)CCN(c1nccc(C(F)(F)F)n1)C3c1cnc(N2CCOCC2)nc1` (stereo not drawn) [Compound 323, 1-[2-(morpholin-4-yl)pyrimidin-5-yl]-6-nitro-2-[4-(trifluoromethyl)pyrimidin-2-yl]-2,3,4,9-tetrahydro-1H-pyrido[3,4-b]indole] showed a 50% inhibitory concentration (IC50) of 3.6 nM.

Take `Cc1ccc(C2c3[nH]c4cc(F)c(Cl)cc4c3CCN2c2nc(C)cc(C(F)(F)F)n2)cc1` (stereo not drawn) [Compound 96, 6-chloro-7-fluoro-1-(4-methylphenyl)-2-[4-methyl-6-(trifluoromethyl)pyrimidin-2-yl]-2,3,4,9-tetrahydro-1H-pyrido[3,4-b]indole]: 1.9 nM corresponded to half-maximal inhibition (IC50).

`Fc1cnc(N2CCc3c([nH]c4cc(F)c(Cl)cc34)C2c2ccc(C(F)(F)F)cc2)nc1` (stereo not drawn) [Compound 35, 6-chloro-7-fluoro-2-(5-fluoropyrimidin-2-yl)-1-[4-(trifluoromethyl)phenyl]-2,3,4,9-tetrahydro-1H-pyrido[3,4-b]indole]: inhibition was half-maximal at 43.2 nM (IC50).

Turning to `Fc1cc2[nH]c3c(c2cc1Cl)CCN(c1nccc(C(F)(F)F)n1)C3c1ccc(Br)c(F)c1F` (stereo not drawn) [Compound 172, 1-(4-bromo-2,3-difluorophenyl)-6-chloro-7-fluoro-2-[4-(trifluoromethyl)pyrimidin-2-yl]-2,3,4,9-tetrahydro-1H-pyrido[3,4-b]indole], the midpoint of inhibition, the IC50, lay at 1.5 nM.

`N#Cc1ccc(C2c3[nH]c4cc(F)c(Cl)cc4c3CCN2c2nccc(C#N)n2)cc1` (stereo not drawn) [Compound 64, 2-[6-chloro-1-(4-cyanophenyl)-7-fluoro-1,3,4,9-tetrahydro-2H-pyrido[3,4-b]indol-2-yl]pyrimidine-4-carbonitrile] displayed a 50% inhibitory concentration (IC50) of 67.5 nM.

Consider `Cc1ccc([C@H]2c3[nH]c4ccc(Cl)cc4c3CCN2c2nc(N)nc(C(F)(F)F)n2)cc1` [Compound 426, 4-[(1S)-6-chloro-1-(4-methylphenyl)-1,3,4,9-tetrahydro-2H-pyrido[3,4-b]indol-2-yl]-6-(trifluoromethyl)-1,3,5-triazin-2-amine], for which the midpoint of inhibition, the IC50, lay at 65 nM.

Molecule `CN(C)c1ccc2[nH]c3c(c2c1)CCN(c1nccc(C(F)(F)F)n1)C3c1cnc(N2CCOCC2)nc1` (stereo not drawn) [Compound 329, N,N-dimethyl-1-[2-(morpholin-4-yl)pyrimidin-5-yl]-2-[4-(trifluoromethyl)pyrimidin-2-yl]-2,3,4,9-tetrahydro-1H-pyrido[3,4-b]indol-6-amine] yielded an IC50 of 35.4 nM.

In the case of `Nc1ncc(C2c3[nH]c4ccc(Cl)c(F)c4c3CCN2c2ncc(F)cn2)cn1` (stereo not drawn) [Compound 212, 5-[6-chloro-5-fluoro-2-(5-fluoropyrimidin-2-yl)-2,3,4,9-tetrahydro-1H-pyrido[3,4-b]indol-1-yl]pyrimidin-2-amine], the IC50 is 71 nM.

Turning to `O=C(O)COCCNc1ncc([C@H]2c3[nH]c4ccc(Cl)cc4c3CCN2c2nc(C(F)(F)F)nc(C(F)(F)F)n2)cn1` [Compound 539, {2-[(5-{(1S)-2-[4,6-bis(trifluoromethyl)-1,3,5-triazin-2-yl]-6-chloro-2,3,4,9-tetrahydro-1H-pyrido[3,4-b]indol-1-yl}pyrimidin-2-yl)amino]ethoxy}acetic acid], the 50% inhibitory concentration (IC50) amounted to 12 nM.

`Fc1cnc(N2CCc3c([nH]c4ccc(Cl)cc34)C2c2cnc(N3CCOCC3)nc2)nc1` (stereo not drawn) [Compound 364, 6-chloro-2-(5-fluoropyrimidin-2-yl)-1-[2-(morpholin-4-yl)pyrimidin-5-yl]-2,3,4,9-tetrahydro-1H-pyrido[3,4-b]indole] returned an IC50 of 10.1 nM.

Molecule `CN1CCN(c2ncc([C@H]3c4[nH]c5ccc(-n6nccn6)cc5c4CCN3c3ncnc(C(F)(F)F)n3)cn2)CC1` [Compound 506, (1S)-1-[2-(4-methylpiperazin-1-yl)pyrimidin-5-yl]-6-(2H-1,2,3-triazol-2-yl)-2-[4-(trifluoromethyl)-1,3,5-triazin-2-yl]-2,3,4,9-tetrahydro-1H-pyrido[3,4-b]indole] returned a 50% inhibitory concentration (IC50) of 5.7 nM.

The molecule `Cc1ccnc(N2CCc3c([nH]c4ccc(Cl)cc34)[C@@H]2c2ccc(C)c(F)c2F)n1` [Compound 234, (1S)-6-chloro-1-(2,3-difluoro-4-methylphenyl)-2-(4-methylpyrimidin-2-yl)-2,3,4,9-tetrahydro-1H-pyrido[3,4-b]indole] came in with a half-inhibitory concentration (IC50) of 0.8 nM.
